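Five concentrations, 48 hours, 96-well plates. GI50 = concentration required for 50% inhibition of growth. TGI is the concentration that stops growth completely.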
Key:
Experiment in all cases: inhibition of tumour cell growth, NCI panel, 48 h
SK-OV-3 ovarian = tested on: SK-OV-3 ovarian
UACC-257 melanoma = tested on: UACC-257 melanoma
HOP-92 NSCLC = tested on: HOP-92 NSCLC
A549 NSCLC = tested on: A549 NSCLC
NCI-H226 lung = tested on: NCI-H226 lung
SW-620 colon = tested on: SW-620 colon
OVCAR-8 ovarian = tested on: OVCAR-8 ovarian
SK-MEL-2 melanoma = tested on: SK-MEL-2 melanoma
HS 578T breast = tested on: HS 578T breast
TK-10 renal = tested on: TK-10 renal
NCI-H522 lung = tested on: NCI-H522 lung
MDA-MB-435 = tested on: MDA-MB-435

SMILES	TGI (SK-OV-3 ovarian)	TGI (UACC-257 melanoma)	TGI (HOP-92 NSCLC)	TGI (A549 NSCLC)	TGI (NCI-H226 lung)	TGI (SW-620 colon)	TGI (OVCAR-8 ovarian)	TGI (SK-MEL-2 melanoma)	GI50 (SK-OV-3 ovarian)	GI50 (HS 578T breast)	TGI (HS 578T breast)	GI50 (UACC-257 melanoma)	GI50 (HOP-92 NSCLC)	GI50 (TK-10 renal)	TGI (TK-10 renal)	GI50 (SK-MEL-2 melanoma)	TGI (NCI-H522 lung)	TGI (MDA-MB-435)	GI50 (MDA-MB-435)	GI50 (OVCAR-8 ovarian)
Cc1ccc2nc3c(C(=O)NCCN(C)C)cccc3cc2c1	6.66 µM	4.56 µM	5.08 µM	4 µM	3.6 µM	5.45 µM	4.87 µM	5.3 µM												
CSc1ccc2c(c1)c(CCN)c(C)n2Cc1ccc(Cl)c(Cl)c1	3.09 µM	3.74 µM	2.78 µM					3.34 µM	1.69 µM	2.05 µM	4.8 µM	2.03 µM	1.4 µM	1.51 µM	2.95 µM	1.74 µM				
NC(=O)c1cnc2sc3ccccc3n2c1=O	> 100 µM	> 100 µM	> 100 µM	> 100 µM	> 100 µM	> 100 µM	> 100 µM	> 100 µM			> 100 µM				> 100 µM		> 100 µM			
CN(c1c(Cl)cccc1Cl)S(=O)(=O)c1ccccc1[N+](=O)[O-]	> 100 µM	> 100 µM		> 100 µM	> 100 µM	> 100 µM	> 100 µM	> 100 µM			> 100 µM				> 100 µM		> 100 µM	> 100 µM		
CN1CCc2c(sc3nc(Nc4ccccc4)n(N)c(=O)c23)C1		> 100 µM		> 100 µM	> 100 µM		> 100 µM	> 100 µM			> 100 µM				> 100 µM					
O=C(NC(=O)c1cn(CCN2CCNCC2)c(=O)[nH]c1=O)OCc1ccccc1	> 100 µM		> 100 µM	> 100 µM	> 100 µM	> 100 µM	> 100 µM										> 100 µM			
C#CCNC(=O)CCC(N)C(=O)O (configuration not stated)	> 100 µM	> 100 µM	> 100 µM	> 100 µM	> 100 µM	> 100 µM	> 100 µM	> 100 µM									> 100 µM			
O=C(ON=c1c2ccccc2ccc2ccccc12)c1cc([N+](=O)[O-])cc([N+](=O)[O-])c1	> 100 µM	> 100 µM	> 100 µM	> 100 µM	> 100 µM	> 100 µM	> 100 µM	> 100 µM			> 100 µM				> 100 µM			> 100 µM		
C=C1C(=O)OC2/C=C(\C)CC/C=C(/C)CC(OC(=O)/C(=C/CO)CO)C12 (configuration not stated)	> 100 µM	36.3 µM	59.9 µM	> 100 µM		63.1 µM	> 100 µM	64 µM			> 100 µM				34.5 µM		39.9 µM	82.5 µM		
COC1/C=C\C=C(/C)C(=O)NC2=CC(=O)C=C(C2=O)C(OC)C(C)CC(OC)C(OC)C(C)/C=C(/C)C1OC(N)=O (configuration not stated)	27.8 µM	19.6 µM	4.52 µM	32.4 µM	37 µM	2.8 µM	5.62 µM	20.5 µM									1.1 µM			
Nc1[nH]c(=O)nc2sc3c(c12)CCCC3	> 100 µM	> 100 µM	> 100 µM	> 100 µM	88.8 µM	> 100 µM	> 100 µM	> 100 µM			71.9 µM				> 100 µM		> 100 µM			
CN(C)C(=S)Nc1nnc(NC23CC4CC(CC(C4)C2)C3)s1	80.1 µM	32.5 µM		36.5 µM	38.4 µM	38.3 µM	> 100 µM	44.7 µM							> 100 µM		34.9 µM			
NC(CCCCCP(=O)(O)O)C(=O)O (configuration not stated)	> 100 µM	> 100 µM	> 100 µM	> 100 µM		> 100 µM	> 100 µM	> 100 µM			> 100 µM				> 100 µM		> 100 µM	> 100 µM		
COC1/C=C/C(C)C(OC)CC(O)/C=C/C(C)C(C(C)C(OC)C(C)CCC(=O)C(C)C(C/C=C/N(C)C=O)OC)OC(=O)/C=C/C=C(\C)CC(OC)C(OC)C2=CC(=O)O[C@@H](C(C)C(OC)C1)[C@H]2O (some centres not stated)	0.104 µM	0.105 µM	0.0773 µM	0.497 µM	0.0714 µM		0.199 µM				0.093 µM				0.124 µM		0.0722 µM	0.195 µM		
O=C(N=Nc1ccc([N+](=O)[O-])cc1)NNc1ccc([N+](=O)[O-])cc1		67.5 µM		> 100 µM	51 µM	45.4 µM	41.9 µM	28.9 µM							53.6 µM		33.1 µM	57.5 µM		
NCCCNCCSSCc1ccccc1CSSCCNCCCN	> 100 µM	> 100 µM	87.9 µM	> 100 µM		> 100 µM	> 100 µM	> 100 µM							> 100 µM		26.7 µM			

SMILES	TGI (SK-OV-3 ovarian)	TGI (UACC-257 melanoma)	TGI (HOP-92 NSCLC)	TGI (A549 NSCLC)	TGI (NCI-H226 lung)	TGI (SW-620 colon)	TGI (OVCAR-8 ovarian)	TGI (SK-MEL-2 melanoma)	GI50 (SK-OV-3 ovarian)	GI50 (HS 578T breast)	TGI (HS 578T breast)	GI50 (UACC-257 melanoma)	GI50 (HOP-92 NSCLC)	GI50 (TK-10 renal)	TGI (TK-10 renal)	GI50 (SK-MEL-2 melanoma)	TGI (NCI-H522 lung)	TGI (MDA-MB-435)	GI50 (MDA-MB-435)	GI50 (OVCAR-8 ovarian)
CCN(CC)CCNc1ccc([N+](=O)[O-])c2nc3ccccc3c(N)c12		7.37 µM	5.84 µM	2.39 µM	5.62 µM	1.91 µM	> 10 µM	0.955 µM			1.83 µM				> 10 µM			1.67 µM		
NNC(N)=Nc1cccc2ccccc12	> 100 µM	> 100 µM	92.4 µM	> 100 µM	> 100 µM	> 100 µM	> 100 µM				> 100 µM				> 100 µM			> 100 µM		
Nn1c(CNc2ccc(-c3nnc(Nc4ccc(Cl)cc4)n3N)cc2)nnc1Nc1ccc(Cl)cc1	> 100 µM	> 100 µM	> 100 µM	> 100 µM	> 100 µM	> 100 µM		> 100 µM							> 100 µM		> 100 µM	> 100 µM		
N#CS/C(C(Cl)=C(Cl)Cl)=C(/Cl)[N+](=O)[O-]	31.2 µM	3.79 µM		53.8 µM	19.9 µM	3.5 µM	3.49 µM	17.1 µM			> 61.4 µM				4.66 µM		2.13 µM	3.19 µM		
CCN(CC)CCN1C(=O)c2cccc3c(-c4ccc5c(c4)ncn5C4CCCCC4)ccc(c23)C1=O	4.18 µM	3.74 µM	1.65 µM				4.62 µM		1.97 µM			2.23 µM	0.372 µM	1.76 µM	4.39 µM			3.22 µM	1.68 µM	1.75 µM
CC(/C=C/c1ncccc1OCCCCCC(=O)O)=N\NC1=NCCN1	> 100 µM		> 100 µM	> 100 µM	> 100 µM	> 100 µM	> 100 µM	> 100 µM							> 100 µM		> 100 µM			
CCCCCCc1nn2c(-c3ccc(C)cc3)nnc2s1	> 100 µM	> 100 µM		> 100 µM		> 100 µM	> 100 µM	> 100 µM			> 100 µM				> 100 µM		> 100 µM	> 100 µM		
CC(=O)OCC1C(C(C)OC(C)=O)CCC2C1CCC1(C)C(OC(C)=O)CCC21 (configuration not stated)		31.9 µM	37.4 µM	39.4 µM	33.6 µM	38.2 µM	46.2 µM								> 100 µM		37.5 µM	34.6 µM		
CN(C)c1nc(N(C)C)nc(N(C)CN(C)c2ccccc2)n1	> 100 µM	> 100 µM		> 100 µM	> 100 µM		> 100 µM	> 100 µM							> 100 µM		> 100 µM			
O=C(O)CC(NC(=O)C(F)(F)F)C(=O)NC1Cc2ccccc2OC1=O (configuration not stated)	> 100 µM	> 100 µM		> 100 µM	> 100 µM	> 100 µM	> 100 µM	> 100 µM			> 100 µM				> 100 µM		> 100 µM	> 100 µM		
COc1cc(Cn2c3c(c4c(CN(C)C)c(O)ccc42)C(=O)c2ccccc2C3=O)cc(OC)c1	48.3 µM	55.7 µM		35.1 µM	> 100 µM	38.5 µM	28.3 µM	29.8 µM			43.9 µM				74.2 µM			37 µM		
Cn1c(-c2ccccc2)cc(-c2ccc3c(c2)OCO3)c1-c1cccs1	> 100 µM	> 100 µM	> 100 µM	> 100 µM	> 100 µM	> 100 µM	> 100 µM	> 100 µM			> 100 µM				> 100 µM			> 100 µM		
Cc1cccc2c1Oc1cc(Cl)ccc1C2NC(=O)CCN1CCCCC1 (configuration not stated)		30.5 µM	10.1 µM	37.5 µM		34.9 µM	30.2 µM								30 µM		31.3 µM	30.7 µM		
COCCO	> 100 µM	> 100 µM	> 100 µM	> 100 µM	> 100 µM	> 100 µM	> 100 µM	> 100 µM									> 100 µM			
C=CCn1c2ccccc2c2c(C)c3cnccc3c(C)c21	38.5 µM	41.9 µM	29.8 µM	> 97.6 µM	40.3 µM	59.1 µM	40.4 µM	> 71 µM									37.2 µM			
C=C1c2nc3ccccc3n2C=C(c2ccc(Cl)cc2)N1c1ccc(OCCN2CCOCC2)cc1	> 100 µM	90.3 µM	> 100 µM	> 100 µM	> 100 µM	> 100 µM		29.1 µM			> 100 µM				> 100 µM			> 100 µM		

Source: PubChem BioAssay (NCI)
